Experimental data: a melting point compilation (Tetko et al.; mined from patent text by program, amines drawn as free bases though some values may be those of a salt)

Going from `O=C(Nc1cnccn1)Nc1cccc2c1C1C[C@@H](O)CCN1C2=O` (some centres undefined) to `Cc1cc2c(NC(=S)N3Cc4sccc4CC3CO)cccc2cn1` (racemic), the melting point falls from 250 °C to 145 °C.

Compared with `Cc1cc(C)c2cccc(OCc3c(Cl)ccc(S(=O)(=O)N4CCC[C@H]4C(=O)NCCCNC(=O)Cc4ccc(C=NN)cc4)c3Cl)c2n1`, `Cc1cc(OCc2ccccc2)cc(OCc2cccc(OCc3ccc4ccccc4n3)c2)c1C(=O)O` is lower in melting point: 184 to 188 °C for the first, 146 to 149 °C for the second.

First: CCOC(=O)c1cc(OCc2ccccc2)c2c(Cl)cc(Cl)cc2n1
Second: O=C(O)CCCOc1cccc(OCc2ccccc2)c1
The melting point of the first is higher: 146 to 147 °C for the first, 76 to 77 °C for the second.

First: O=c1[nH]c2cc(Cl)ccc2c(O)c1-c1ccc(Oc2ccccc2)cc1
Second: N=C(c1ccccc1)c1cc(Cl)ccc1O
The melting point of the first is higher: 274 to 276 °C for the first, 129 to 131 °C for the second.

Compared with `O=[N+]([O-])c1cnc2ccc(S)cc2c1-c1ccccc1`, `O=[N+]([O-])c1cc2oc(-c3ccccc3)nc2cc1N1CCOCC1` is lower in melting point: 160 to 163 °C for the first, 134 to 135 °C for the second.

First: CCN1CC(=O)N(c2ccc3ccccc3c2)C1=S
Second: CCCCCS(=O)(=O)c1cccc(-c2nc(=O)c3ccccc3s2)n1
The melting point of the first is lower: 156 to 159 °C for the first, 160 to 161 °C for the second.

First: O=CC(=Cc1ccc(OCc2ccccc2)cc1)C(C=O)=Cc1ccc(OCc2ccccc2)cc1
Second: CCCCCCCCOc1ccc(-c2ccc(C(=O)Oc3ccc(C(C)(Br)C(=O)OC)cc3)cc2)cc1 (centres undefined)
The melting point of the first is higher: 119 to 120 °C for the first, 104 to 105 °C for the second.

First: COc1ccc(Cc2n[nH]c3c2c(=O)n(-c2ccccc2)c2ncccc32)cc1OC
Second: COC(=O)c1cccc2nc(OC)n(Cc3ccc(-c4ccccc4-c4nnn[nH]4)cc3)c12
The melting point of the first is higher: 230 to 232 °C for the first, 165 to 166 °C for the second.

First: COc1ccccc1C1(O[Si](C)(C)C)C(=O)Nc2cc(C)c(Cl)cc21 (centres undefined)
Second: Cc1cc2c(cc1-c1cc(C=C3SC(=O)NC3=O)ccc1OC(F)(F)F)C(C(C)C)=CCC2(C)C
The melting point of the first is higher: 227 °C for the first, 179 °C for the second.

First: C=C(C)C(=O)OCCCOc1ccc(OC(=O)C(=C)C)cc1
Second: COc1ccc(-c2c([N+](=O)[O-])c3ccc(OC)cc3c(=O)n2CC#N)cc1
The melting point of the first is lower: 58 °C for the first, 194 to 196 °C for the second.

First: O=C(O)CNC(=O)c1cccc(NC(=O)C(CS)Cc2ccccc2)c1 (centres undefined)
Second: CCC(=O)Nc1ccc2nc(C(=O)NCc3cccc(OC)c3)[nH]c(=O)c2c1
The melting point of the first is lower: 80 to 83 °C for the first, 222 to 223 °C for the second.

First: CNC(=O)c1ccc(-c2ccc(NC(=O)NCc3cccnc3)cc2)nc1N
Second: CCc1c(N)cccc1NC(=O)c1ccc(Br)cc1
The melting point of the first is higher: 234 to 236 °C for the first, 169 to 170 °C for the second.

First: CC(C)(C)OC(=O)N1CCN(c2ccc(OCC3(C)CCn4cc([N+](=O)[O-])nc4O3)cc2)CC1 (centres undefined)
Second: NC(=O)c1sc2nccc(N3CCCN(c4ccc5c(c4)OCCO5)CC3)c2c1N
The melting point of the first is higher: 208 to 209 °C for the first, 104 to 107 °C for the second.

First: O=P(c1ccccc1)(c1ccccc1)c1nnc(P(=O)(c2ccccc2)c2ccccc2)c2ccccc12
Second: CC(C)(C)n1cc(-c2ccc(-c3ccccc3)cc2)c2c(N)ncnc21
The melting point of the first is higher: 225 to 228 °C for the first, 212 to 214 °C for the second.

Compared with `CN(SC(Cl)(Cl)Cl)C(=O)OC(C(Oc1ccc(Cl)cc1)n1cncn1)C(C)(C)C` (centres undefined), `CC(C)(C)C(=O)Cn1ccnc1` is lower in melting point: 110 to 112 °C for the first, 20 °C for the second.

Compared with `Cc1cc2c(s1)CCCN(CCN1CCN(c3ncccn3)CC1)C2=O`, `Cc1ccc(Cc2cnc(CCCOc3cc(CN4CCCCC4)ccn3)[nH]c2=O)cn1` is lower in melting point: 137 to 139 °C for the first, 99 to 100 °C for the second.

First: Cn1cc(OS(C)(=O)=O)c(=O)c2ccc(Cl)cc21
Second: CS(=O)(=O)C1Cc2cc(Cl)ccc2C1O (centres undefined)
The melting point of the first is lower: 157 to 158 °C for the first, 163 °C for the second.

Compared with `COc1cc(-c2nc3cnc(OC[C@H](C)NC(C)=O)cc3o2)cc(F)c1OCC1CC1`, `COc1ccc(-c2nc(CN3CCOCC3)nc3cc(OC)c(OC)cc23)cc1OC` is lower in melting point: 163 °C for the first, 148 to 150 °C for the second.

Compared with `CCCCCn1nc(-c2ccc(F)cc2)c(-c2ccc(S(C)(=O)=O)cc2)cc1=O`, `Cc1ccc(S(=O)(=O)Oc2c(-c3ccc(S(C)(=O)=O)cc3)cnn(-c3cccc(Cl)c3)c2=O)cc1` is higher in melting point: 65 to 67 °C for the first, 198 to 200 °C for the second.

First: CC(C)C1(C)N=C(c2nc3c(cc2C(=O)O)CCO3)NC1=O (centres undefined)
Second: CCC1Cc2cc(OCC(=O)O)c(Cl)cc2C1=O (centres undefined)
The melting point of the first is higher: 189 to 192 °C for the first, 132 to 138 °C for the second.

First: CCOC(=O)c1cc2cccc(N(C)S(=O)(=O)c3cccs3)c2n1COC
Second: CCCC(=O)c1cnc2ccsc2c1Nc1ccccc1C
The melting point of the first is higher: 143 to 145 °C for the first, 114 to 116 °C for the second.

Compared with `CSc1nc(OC(F)F)cc(OC(F)F)n1`, `COC=Nc1c(SC)c(-c2ncon2)nn1-c1c(Cl)cc(C(F)(F)F)cc1Cl` is higher in melting point: 46 to 48 °C for the first, 119 to 121 °C for the second.

First: CCCCN1CCC(n2c(=O)[nH]c3ccc(Br)cc32)CC1
Second: CCS(=O)(=O)CCc1ccc2[nH]cc(CC3CCCN3C)c2c1 (centres undefined)
The melting point of the first is higher: 179 to 181 °C for the first, 59 to 62 °C for the second.

First: Nc1sc2c(c1C(=O)c1ccc(Br)s1)CCC2
Second: N=C(N)c1ccc2c(c1)N(CC(=O)c1ccc(Br)cc1)C(=O)CN2
The melting point of the first is higher: 154 to 156 °C for the first, 145 to 150 °C for the second.

First: CP(C)(=O)CN1CCC(Oc2c(F)c(F)c(F)c(F)c2F)CC1
Second: Cc1nc(N2CCCC(NCC3CC3)C2=O)sc1C(=O)NCc1ccccc1 (centres undefined)
The melting point of the first is lower: 120 to 123 °C for the first, 125 to 126 °C for the second.

First: OCC1CCC(n2cnc3cc(Cl)c(Cl)cc32)C1 (centres undefined)
Second: Fc1ccc(-c2ncn(C3CCN4CCCC4C3)c2-c2ccncc2)cc1 (centres undefined)
The melting point of the first is lower: 142 to 145 °C for the first, 187 to 189 °C for the second.

Compared with `COC(=O)C(=CO)c1ccccc1`, `CSC(SC)=C(Cl)c1cccc(C(=O)c2ccccc2)c1` is higher in melting point: 33.5 to 35.5 °C for the first, 94 to 96 °C for the second.

First: Cc1cc(C(=O)N2Cc3ccc(C(=O)N(C)C[C@@H]4OC(=O)O[C@H]4[C@H](O)[C@H]4COC(=O)O4)n3Cc3ccccc32)ccc1C1=CCCCC1
Second: O=C1C[C@@H]2[C@@H](/C=C/C(=O)[C@@H]3OCc4ccccc4O3)[C@H](OC(=O)c3ccccc3)C[C@@H]2O1
The melting point of the first is higher: 162 to 168 °C for the first, 129 to 130 °C for the second.

First: COC(COc1ccc(Br)c(C)c1C)OC
Second: COc1ccc2c(c1)N(C)C(=O)C2(C)C
The melting point of the first is lower: 40 to 41 °C for the first, 67 to 69 °C for the second.

Compared with `CCCCCCCCCCCCOS(=O)(=O)O`, `CCS(=O)(=O)c1ccc(SC2SCC(O)C(O)C2O)cc1` (centres undefined) is higher in melting point: 72 °C for the first, 130 to 135 °C for the second.

Going from `NS(=O)(=O)c1cccc(-c2noc(-c3cnn4c(C(F)(F)F)cc(-c5ccc(C(F)(F)F)cc5)nc34)n2)c1` to `Cc1[nH]c(/C=C2\C(=O)Nc3cc(NC(=O)c4c[nH]cc(-c5ccc(F)cc5)c4=O)ccc32)c(C)c1CC(=O)N1CCOCC1`, the melting point falls from 262 °C to 235 °C.

First: O=C(Nc1ccccc1)Nc1ccc(F)c([N+](=O)[O-])c1
Second: CC1(C)CC(=O)c2c(SCc3ccccc3)c[nH]c2C1
The melting point of the first is lower: 200 to 202 °C for the first, 220 to 223 °C for the second.

Going from `Cc1csc2nc3cc(F)ccc3n12` to `Cc1cc(C#N)cc(C(=O)Nc2nc(C)cs2)n1`, the melting point rises from 148 °C to 211 °C.

First: Cc1c(NC(=O)c2ccc(OCC3CC3)cc2)ccc2cc(CNCC3CCOCC3)[nH]c12
Second: Cc1c(C2=CCC(Cc3ccccc3)(N(C)C)CC2)[nH]c2ccc(OC(F)(F)F)cc12 (centres undefined)
The melting point of the first is higher: 167 to 168 °C for the first, 74 to 75 °C for the second.

In the case of `CC(/C=C/C(Br)=C(/C)c1ccc2c(c1)C(C)(C)CCC2(C)C)=C\C(=O)O`, the melting point is reported as 189 to 190 °C.
